Experimental data as given in the NIST ThermoML archive (doi:10.1016/j.jct.2009.07.020).

How the values were obtained:
[1] = 293.15 K, 101.33 kPa, Liquid; for speed of sound: Sing-around technique in a fixed-path interferometer; for mass density: Vibrating tube method
[2] = xn = mol fraction of the nth substance listed; conditions: 101 kPa, Liquid; for speed of sound: Sing-around technique in a fixed-path interferometer; for mass density: Vibrating tube method

CCCCCCCCCCO [decan-1-ol]
[1]
Conditions	mass density [kg/m3]	speed of sound [m/s]
–	829.991	1396.4

CCCCCCCCCCO [decan-1-ol] + BrCCBr
[2], x2 = 0
Conditions	mass density [kg/m3]	speed of sound [m/s]
293.15 K	829.991	1396.4
313.15 K	816.264	1328.7

CCCCCCCCCCO [decan-1-ol] + ClC(Cl)=C(Cl)Cl
[2], x2 = 0
Conditions	mass density [kg/m3]	speed of sound [m/s]
293.15 K	829.991	1396.4
313.15 K	816.264	1328.7

CCCCCCCCCCO [decan-1-ol] + ClCCCl
[2], x2 = 0
Conditions	mass density [kg/m3]	speed of sound [m/s]
293.15 K	829.991	1396.4
313.15 K	816.264	1328.7

ClC(Cl)=C(Cl)Cl [tetrachloroethene]
[1]
Conditions	mass density [kg/m3]	speed of sound [m/s]
–	1622.39	1053.8

ClC(Cl)=C(Cl)Cl [tetrachloroethene] + CCCCCCCCCCO
[2]
Conditions	mass density, 293.15 K [kg/m3]	mass density, 313.15 K [kg/m3]	speed of sound, 293.15 K [m/s]	speed of sound, 313.15 K [m/s]
x1 = 0.057	854.607	840.425	1378.1	1310.7
x1 = 0.1355	890.745	875.885	1350.2	1283.1
x1 = 0.2186	932.241	916.585	1319.8	1252.8
x1 = 0.2882	969.944	953.338	1294.8	1228.4
x1 = 0.3824	1025.8	1007.72	1260.6	1195
x1 = 0.4464	1067.31	1048.17	1237.2	1172
x1 = 0.499	1103.86	1083.69	1218.5	1153.5
x1 = 0.5849	1168.91	1146.94	1187.2	1122.7
x1 = 0.6417	1216.01	1192.81	1166.5	1102.9
x1 = 0.7175	1284.75	1259.72	1139.4	1076
x1 = 0.7786	1345.73	1319.21	1117.7	1054.1
x1 = 0.8527	1427.55	1398.72	1092.4	1029.3
x1 = 0.9003	1485.31	1455.08	1077.6	1015
x1 = 0.941	1538.45	1507.24	1065.9	1005
x1 = 1	1622.39	1588.98	1053.8	993.96
